Data on five molecules can be found in ChEMBL document CHEMBL5236649 (Bioorg Med Chem, 2023).

SMILES strings stand for the structures.

Assay [1] deals with D(3) dopamine receptor (Rattus norvegicus, UniProt P19020). The experiment in a line: Displacement of [3H]-spiroperidol from rat D3 receptor expressed in HEK293 cells assessed as inhibition constant by Cheng-Prusoff equation analysis.
In assay [2] the target is D(2) dopamine receptor (Rattus norvegicus, UniProt P61169). The experiment in a line: biochemical.
Description: Displacement of [3H]-spiroperidol from rat D2L receptor expressed in HEK293 cells assessed as inhibition constant by Cheng-Prusoff equation analysis
The target in assay [3] is D(2) dopamine receptor (Homo sapiens, UniProt P14416). Briefly: biochemical.

For the molecule `CCCN(CC(=O)N1CCN(C(=O)CN(CCC)[C@H]2CCc3c(O)cccc3C2)CC1)[C@H]1CCc2c(O)cccc2C1`, in assay [1], the Ki is 115 nM.

As for `CCCN(CCc1ccc(CCN(CCC)[C@H]2CCc3c(O)cccc3C2)cc1)[C@H]1CCc2c(O)cccc2C1`, the results for the Ki in assay [1] and in assay [2] were 3.86 nM and 3.88 nM, respectively.

Take `CCCN(CCc1ccc(CCN(CCC)[C@H]2CCc3nc(N)sc3C2)cc1)[C@H]1CCc2c(O)cccc2C1`: the Ki in assay [1] was 2.15 nM; in assay [2], 4.91 nM.

`CCCN(CCc1cc(O)c(CCN(CCC)[C@H]2CCc3nc(N)sc3C2)cc1O)[C@H]1CCc2nc(N)sc2C1` yielded an EC50 in assay [3] of 34.4 nM. Also, the inhibitory constant (Ki) in assay [1] was found to be 6.87 nM.

Take `CCCN(CCN1CCN(CCN(CCC)[C@H]2CCc3c(O)cccc3C2)CC1)[C@H]1CCc2c(O)cccc2C1`: the values for the Ki in assay [1] and in assay [2] were 3.56 nM and 12 nM, respectively.
